“And” between values parts separate entries of the source, which are not always exact repeats. Equal values may be shown once.
Key:
APL cells = tested on: APL cells; design: species or system mice; conditions: mouse, in vivo
fragment C = conditions: in vivo
[1] = tested on: spleen cells stimulated with irradiated APL cells; test: Cytokine release assay (Th1/Th2 cytometric bead array); type: cell-based, mice
Experimental: Long term survivors (post day 300 illustrated in FIG. 2B) were sacrificed and tested for proliferation and cytokine release. Briefly, 5×10^5 responders (spleen cells from FVB/N injected with APL cells and treated with ATRA+PML-RARα-FrC or ScFvBCL1-FrC) were plated in each well with 200 μl of media consisting of RPMI 1640, 10% FCS and 0.5% […]. Spleen cells from healthy mice treated with ATRA. Stimulators (spleen cells from FVB/N, APL or BALB/c) were irradiated with 25 Gy and 1×10^6 cells were added to each well. After 24, 48 and 72 hours of incubation cells were assayed for ^3H-thymidine incorporation and supernatants were harvested for cytokine release assays. Cultures were set up in duplicate.
Cytokine release was measured using a mouse Th1/Th2 cytokine cytometric bead array kit according to the manufacturer's protocols (Becton, Dickinson, Pharmingen, San Jose, Calif.). This kit measures cytokines IL-2, IL-4, IL-5, IFN-γ and TNF-α. Long-term survivors of the mice from the protocol illustrated in FIG. 8, were sacrificed and spleen cells were cultured as described above. Briefly, 50 μl of supernatant was incubated with 50 μl of the mixed capture beads and 50 μl of the mouse Th1/Th2 PE detection reagent for 2 hours and analyzed on a FACSCalibur cytometer. Analysis was undertaken using the BD CBA (Becton Dickinson, Pharmingen) and Cell Quest software.

[2] = tested on: Recombinant human RARα protein (rhRARα); design: species or system mice; conditions: in vivo

| Compound | Survival versus comparison arms (Kaplan Meier), in words (APL cells) | Survival: No. mice/total (APL cells) | Time to relapse and death post transplant (APL cells; sc) | Antibody response to fragment C (mice responding/mice tested) (fragment C) | IFN-γ release ([1]; 48 hours of culture, irradiated APL cells as stimulators, ATRA alone = spleen cells from healthy mice) [pg/mL] | Antibodies against RARα detected by ELISA, in words [2] | RARα Ab positive (%) [2] | RARα Ab positive: mice with detectable antibodies/mice alive [2] | Lifespan, in words (APL cells) | TNFα ([1]; with ATRA, approximately one year from injection of APL cells) |
| --- | --- | --- | --- | --- | --- | --- | --- | --- | --- | --- |
| CC1=C(/C=C/C(C)=C/C=C/C(C)=C/C(=O)O)C(C)(C)CCC1 [ATRA, all-trans retinoic acid] | all of the mice relapse and die | 24/24 (100%) and 5/24 (21%) and 0/24 (0%) | 6-12 weeks | no antibodies to fragment C was detected | 52 | Significant levels of antibodies against RARα were detected | 7/12 (58%) and 4/5 (80%) | 0/12 and 7/12 (58%) and 4/5 (80%) | – | – |
| ScFvBCL1-FrC: ScFv construct of King et al 1998 from a lymphoma patient fused in frame to BCL1 leader and fragment C (SEQ ID NO:11) | – | – | – | – | – | – | – | – | extended lifespan | increases in TNFα |

Source: patent US8673870B2 (priority 2002, dated 2014)
